Key:
[1] = system: MET-1^fvb2 mammary carcinoma cells; test: In vitro viability assay (MTT); format: cell-based, mouse; details: Met-1 cell line, 72 hours, read-out: IC50 (cytotoxicity)
Method: MET-1^fvb2 mammary carcinoma cells were obtained from the Alexander Borowsky Laboratory (UC Davis). MET-1 cells were plated at 2000 cells in 50 μl media per well in 96-well tissue culture plates in high glucose Dulbecco's Modified Eagle's Medium (DMEM, Invitrogen, Carlsbad, Calif.) supplemented with 1% PenStrep and 10% FBS. Cells were given six hours to attach to the plate surface. Treatments were added to each well in 100 μl media and experiments were performed in triplicate. Doxil®, a commercial product of ALZA corporation and manufactured by Centocor Ortho Biotech, was purchased from Cardinal Health Care (Dublin, Ohio) and the in vitro viability was compared with the liposomal copper-doxorubicin.
Plates were incubated for 72 hours at 37° C. in 5% CO2. 3-(4,5-dimethylthiazol-2-yl)-2,5-diphenyltetrazolium bromide (MTT, Invitrogen, Carlsbad, Calif.) reagent was added to media at a concentration of 0.5 mg/ml, and cells were incubated 2 hours at 37° C. in 5% CO2. […] Absorbance was measured using Tecan Infinite® M1000 Microplate Reader (San Jose, Calif.) at wavelength 570 nm (reference of 670 nm). Best-fit curves and IC50 values were calculated for concentration-response curves using GraphPad Prism software (GraphPad Inc., La Jolla, Calif.). Average IC50 values calculated from a minimum of three replicate experiments for each preparation.

[2] = Ex vivo imaging of doxorubicin accumulation in mouse heart; details: 40 min post administration
Method: FIG. 15. Ex vivo imaging of doxorubicin accumulation in mouse heart after liposomes were injected into the tail vein and allowed to circulate. Heart was removed after euthanasia to assess fluorescence. a) Doxorubicin fluorescence in hearts of mice injected with liposomal doxorubicin in lyso-temperature sensitive liposomes when Dox was loaded with ammonium sulfate method (ASDox-LTSLs) or loaded in liposomes containing 100 mM copper/270 mM TEA (CuDox-LTSLs), and loaded in temperature sensitive liposomes with 25% cholesterol containing 100 mM copper/270 mM TEA (CuDox-TSLs+25% chol) compared to those injected with free Dox. Animals were euthanized 40 min post administration of free or liposomal doxorubicin. Animals were perfused with saline and hearts were dissected prior to Maestro imaging. Statistical analyses were performed using one-way ANOVA followed by a Tukey Post Hoc test. *p<0.05, **p<0.01. Inset images of heart acquired by Maestro imaging system (white indicates higher doxorubicin fluorescence intensity).

NDL cells = test: Intracellular trafficking and subcellular localization of doxorubicin; format: cell-based; details: post incubation at 37° C.
[3] = mouse, in vivo

increase in cardiac accumulation of doxorubicin compared to liposomal copper-doxorubicin in temperature-sensitive liposomes [2]: 4 fold
skin fluorescence trend [3]: decreasing with time
SMILES: COc1cccc2c1C(=O)c1c(O)c3c(c(O)c1C2=O)C[C@@](O)(C(=O)CO)C[C@@H]3O[C@H]1C[C@H](N)[C@H](O)[C@H](C)O1.Cl [free doxorubicin, Doxorubicin hydrochloride]
IC50 [1]: 20 ± 10 nM
time at which the nucleus showed doxorubicin fluorescence (NDL cells): 15 min
